Biological target: S. pneumoniae Topoisomerase IV ATPase (ParE) (Streptococcus pneumoniae serotype 4, UniProt Q59961)
Assay: S. pneumoniae Topoisomerase IV ATPase inhibition
Type: biochemical
Settings: values marked * are an average of two or more data points, read-out: % Inh (13 μM) of S. pneumoniae Topoisomerase IV ATPase
Summary of the method: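 ParE ATPase (1.25 nM) run with 160 μM ATP and 5 μg/ml sheared salmon sperm DNA in Tris pH 8.0, Mg2+, glycerol, DTT, Brij-35. Phosphate released read by malachite green/molybdate absorbance at 650 nm. IC50 from 10 compound concentrations; DMSO (2%) as 0% and EDTA (20 μM) as 100% inhibition.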

Chain of S. pneumoniae Topoisomerase IV ATPase (ParE) (Q59961 whole entry): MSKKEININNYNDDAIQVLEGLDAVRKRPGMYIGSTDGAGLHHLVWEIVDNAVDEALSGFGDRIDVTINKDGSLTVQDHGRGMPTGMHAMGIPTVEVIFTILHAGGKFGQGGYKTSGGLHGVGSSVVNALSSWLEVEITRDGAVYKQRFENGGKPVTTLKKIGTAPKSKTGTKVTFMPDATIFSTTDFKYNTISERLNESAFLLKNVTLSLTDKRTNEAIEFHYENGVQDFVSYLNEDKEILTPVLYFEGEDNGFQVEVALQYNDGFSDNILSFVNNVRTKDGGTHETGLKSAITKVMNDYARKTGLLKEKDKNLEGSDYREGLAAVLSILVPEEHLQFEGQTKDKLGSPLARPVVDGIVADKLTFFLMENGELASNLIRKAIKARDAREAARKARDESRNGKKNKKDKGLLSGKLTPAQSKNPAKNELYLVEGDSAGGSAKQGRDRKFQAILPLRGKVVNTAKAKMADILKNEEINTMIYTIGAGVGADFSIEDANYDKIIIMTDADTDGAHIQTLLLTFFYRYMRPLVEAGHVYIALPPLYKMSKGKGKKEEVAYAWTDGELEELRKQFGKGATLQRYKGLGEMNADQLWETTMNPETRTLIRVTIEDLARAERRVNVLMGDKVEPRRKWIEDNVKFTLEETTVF

Compound | inhibition at 13 µM
O=C1NC(=O)c2cc(-c3cnc(Nc4ccc(F)c(Cl)c4)nc3-n3ccc(C(F)(F)F)n3)ccc21 [Example 1009, 5-(2-(3-Chloro-4-fluorophenylamino)-4-(3-(trifluoromethyl)-1H-pyrazol-1-yl)pyrimidin-5-yl)isoindole-1,3-dione] | 92%
CN(C)CCCNc1nc(Nc2ccc(F)c(Cl)c2)ncc1-c1cnc(N)nc1 [Example 19, N^2-(3-chloro-4-fluorophenyl)-N^4-[3-(dimethylamino)propyl]-5,5′-bipyrimidin-2,2′,4-triamine] | 95.8%
O=C(O)c1cncc(-c2cnc(Nc3cc(F)cc(F)c3)nc2N2CCOCC2)c1 [Example 388, 5-[2-(3,5-Difluoro-phenylamino)-4-morpholin-4-yl-pyrimidin-5-yl]nicotinic acid] | 72%
COc1ncc(-c2cnc(Nc3ccc(F)c(Cl)c3)nc2-n2nc(C(F)(F)F)cc2C)cc1C(=O)NS(C)(=O)=O [Example 1025, 5-(2-(3-Chloro-4-fluorophenylamino)-4-(5-methyl-3-(trifluoromethyl)-1H-pyrazol-1-yl)pyrimidin-5-yl)-2-methoxy-N-(methylsulfonyl)nicotinamide] | 98%
O=C(O)c1cncc(-c2cnc(Nc3ccc(F)c(Cl)c3)nc2-n2cc(Cl)cn2)c1 [Example 309, 5-{2-[(3-chloro-4-fluorophenyl)amino]-4-(4-chloro-1H-pyrazol-1-yl)pyrimidin-5-yl}pyridine-3-carboxylic acid] | 69.4%
O=C(O)/C=C/c1cccc(-c2cnc(Nc3ccc(F)c(Cl)c3)nc2NCCn2ccnc2)c1 [Example 266, (2E)-3-[3-(2-[(3-chloro-4-fluorophenyl)amino]-4-{[2-(1H-imidazol-1-yl)ethyl]amino}pyrimidin-5-yl)phenyl]prop-2-enoic acid] | 109%
Cc1cc(C)cc(Nc2ncc(-c3cncc(C(=O)O)c3)c(-n3ccc(C(F)(F)F)n3)n2)c1 [Example 637, 5-{2-[(3,5-dimethylphenyl)amino]-4-[3-(trifluoromethyl)-1H-pyrazol-1-yl]pyrimidin-5-yl}pyridine-3-carboxylic acid] | 100%
CCNC(=O)c1ccc(-c2cnc(Nc3ccc(F)c(Cl)c3)nc2NCCCN(C)C)cc1 [Example 363, 4-(2-(3-chloro-4-fluorophenylamino)-4-(3-(dimethylamino)propylamino)pyrimidin-5-yl)-N-ethylbenzamide] | 57.9%
CS(=O)(=O)c1cccc(Nc2ncc(-c3cccc(/C=C/C(=O)O)c3)c(-n3ccc(C(F)(F)F)n3)n2)c1 [Example 623, (2E)-3-[3-(2-{[3-(methylsulfonyl)phenyl]amino}-4-[3-(trifluoromethyl)-1H-pyrazol-1-yl]pyrimidin-5-yl)phenyl]prop-2-enoic acid] | 100%
CCOC(=O)c1cncc(-c2cnc(Nc3ccc(F)c(Cl)c3)nc2N2CCCCC2)c1 [Example 152, ethyl 5-(2-(3-chloro-4-fluorophenylamino)-4-(piperidin-1-yl)pyrimidin-5-yl)nicotinate] | 0.54%
CCOC(=O)c1cncc(-c2cnc(Nc3ccc(F)c(Cl)c3)nc2NC(COC)COC)c1 [Example 149, ethyl 5-(2-(3-chloro-4-fluorphenylamino)-4-(1,3-dimethoxypropan-2-ylamino)pyrimidin-5-yl)nicotinate] | 82.2%
COC(=O)c1cccc(-c2cnc(Nc3ccc(F)c(Cl)c3)nc2NCCCN(C)C)c1 [Example 2, methyl 3-(2-(3-chloro-4-fluorophenylamino)-4-(3-(dimethylamino)propylamino)pyrimidin-5-yl)benzoate] | 77.8%
Cc1cccc(Nc2ncc(-c3cncc(C(=O)O)c3)c(-n3nc(C(F)(F)F)cc3C)n2)c1 [Example 711, 5-{2-[(3-methylphenyl)amino]-4-[5-methyl-3-(trifluoromethyl)-1H-pyrazol-1-yl]pyrimidin-5-yl}pyridine-3-carboxylic acid] | 100%
COCCCNc1nc(Nc2ccc(F)c(Cl)c2)ncc1-c1cnc(OC)nc1 [Example 78, N^2-(3-chloro-4-fluorophenyl)-2′-methoxy-N^4-(3-methoxypropyl)-5,5′-bipyrimidine-2,4-diamine] | 80.9%
COc1ncc(-c2cnc(Nc3cccc(C(N)=O)c3)nc2-n2nc(C(F)(F)F)cc2C)cc1C(=O)O [Example 723, 5-{2-[(3-carbamoylphenyl)amino]-4-[5-methyl-3-(trifluoromethyl)-1H-pyrazol-1-yl]pyrimidin-5-yl}-2-methoxypyridine-3-carboxylic acid] | 94%
COc1cc(Nc2ncc(-c3cnc(OC)c(C(=O)NCCS(C)(=O)=O)c3)c(-n3ccc(C(F)(F)F)n3)n2)cc(OC)c1 [Example 813, 5-{2-[(3,5-dimethoxyphenyl)amino]-4-[3-(trifluoromethyl)-1H-pyrazol-1-yl]pyrimidin-5-yl}-2-methoxy-N-[2-(methylsulfonyl)ethyl]pyridine-3-carboxamide] | 100%

Compound | inhibition at 13 µM
COc1cc(Nc2ncc(-c3cc(C(=O)O)c(=O)n(C)c3)c(-n3nc(C(F)(F)F)cc3C)n2)cc(OC)c1 [Example 918, 5-(2-(3,5-dimethoxyphenylamino)-4-(5-methyl-3-(trifluoromnethyl)-1H-pyrazol-1-yl)poyrimidin-5-yl)-1-methyl-2-oxo-1,2-dihydropyridine-3-carboxylic acid] | 100%
COCCCNc1nc(Nc2ccc(F)c(Cl)c2)ncc1-c1nc(-c2cccnc2)cs1 [Example 499, N^2-(3-chloro-4-fluorophenyl)-N^4-(3-methoxypropyl)-5-[4-(pyridin-3-yl)-1,3-thiazol-2-yl]pyrimidine-2,4-diamine] | 34%
COc1cc(F)cc(Nc2ncc(-c3cnc(OC)c(C(=O)O)c3)c(-n3ccc(C(F)(F)F)n3)n2)c1 [Example 923, 5-(2-(3-fluoro-5-methoxyphenylamino)-4-(3-(trifluoromethyl)-1H-pyrazol-1-yl)pyrimidin-5-yl)-2-methoxynicotinic acid] | 100%
Fc1ccc(Nc2ncc(-c3cncnc3)c(-n3nnc4ccccc43)n2)cc1Cl [Example 89, 4-(1H-benzotriazol-1-yl)-N-(3-chloro-4-fluorophenyl)-5,5′-bipyrimidin-2-amine] | 85.3%
NC(=O)c1cncc(-c2cnc(Nc3ccc(F)c(Cl)c3)nc2NCCc2c[nH]cn2)c1 [Example 472, 5-(2-[(3-chloro-4-fluorophenyl)amino]-4-{[2-(1H-imidazol-4-yl)ethyl]amino}pyrimidin-5-yl)-pyridine-3-carboxamide] | 100%
O=C(O)c1cccc(-c2cnc(Nc3ccc(F)c(Cl)c3)nc2-n2ccc(C(F)(F)F)n2)c1 [Example 570, 3-(2-(3-chloro-4-fluorophenylamino)-4-(3-(trifluoromethyl)-1H-pyrazol-1-yl)pyrimidin-5-yl)benzoic acid] | 91%
COc1ncc(-c2cnc(Nc3cc(C)cc(C)c3)nc2-n2ccc(C(F)(F)F)n2)cc1C(=O)NS(=O)(=O)CCCN1CCOCC1 [Example 828, 5-{2-[(3,5-dimethylphenyl)amino]-4-[3-(trifluoromethyl)-1H-pyrazol-1-yl]pyrimidin-5-yl}-2-methoxy-N-{[3-(morpholin-4-yl)propyl]sulfonyl}pyridine-3-carboxamide] | 100%
COCCn1cc(-c2cnc(Nc3ccc(F)c(Cl)c3)nc2-n2nc(C(F)(F)F)cc2C)cc(C(=O)O)c1=O [Example 1082, 5-(2-(3-Chloro-4-fluorophenylamino)-4-(5-methyl-3-(trifluoromethyl)-1H-pyrazol-1-yl)pyrimidin-5-yl)-1-(2-methoxyethyl)-2-oxo-1,2-dihydropyridine-3-carboxylic acid] | 100%
Fc1ccc(Nc2ncc(-c3cncnc3)c(-n3ccnc3)n2)cc1Cl [Example 1113, N-(3-chloro-4-fluorophenyl)-4-imidazol-1-yl-5-pyrimidin-5-ylpyrimidin-2-amine] | 72%
COc1cc(Nc2ncc(-c3cccc(/C=C/C(=O)O)c3)c(NCCc3ccncc3)n2)cc(OC)c1 [Example 353, (E)-3-(3-(2-(3,5-dimethoxyphenyl-amino)-4-(2-(pyridin-4-yl)ethylamino)pyrimidin-5-yl)phenyl) acrylic acid] | 83.9%
O=C(O)CS(=O)(=O)c1cccc(-c2cnc(Nc3ccc(F)c(Cl)c3)nc2-n2ccc(C(F)(F)F)n2)c1 [Example 1099, 2-(3-(2-(3-chloro-4-fluorophenylamino)-4-(3-(trifluoromethyl)-1H-pyrazol-1-yl)pyrimidin-5yl)phenylsulfonyl)acetic acid] | 100%
CN1CCN(CCNc2nc(Nc3ccc(F)c(Cl)c3)ncc2-c2cncc(C(=O)O)c2)CC1 [Example 263, 5-(2-[(3-chloro-4-fluorophenyl)amino]-4-{[2-(4-methylpiperazin-1-yl)ethyl]amino}pyrimidin-5-yl)pyridine-3-carboxylate acid] | 86.2%
CCOC(=O)c1cncc(-c2cnc(Nc3ccc(F)c(Cl)c3)nc2NCc2cnn(C)c2)c1 [Example 148, ethyl 5-(2-(3-chloro-4-fluorophenylamino)-4-((1-methyl-1H-pyrazol-4-yl)methylamino)pyrimidin-5-yl)-nicotinate] | 120%
COc1cc(Nc2ncc(-c3cc(C(=O)O)c(=O)n(CCS(C)(=O)=O)c3)c(-n3ccc(C(F)(F)F)n3)n2)cc(OC)c1 [Example 1095, 5-(2-(3,5-dimethoxyphenylamino)-4-(3-(trifluoromethyl)-1H-pyrazol-1-yl)pyrimidin-5-yl)-1-(2-(methylsulfonyl)ethyl)-2-oxo-1,2-dihydropyridine-3-carboxylic acid] | 100%
Cc1cc(C(F)(F)F)nn1-c1nc(Nc2ccc(F)c(Cl)c2)ncc1-c1cnc(OCCN2CCOCC2)c(C(=O)O)c1 [Example 1141, 5-(2-(3-chloro-4-fluorophenylamino)-4-(5-methyl-3-(trifluoromethyl)-1H-pyrazol-1-yl)pyrimidin-5-yl)-2-(2-morpholinoethoxy)nicotinic acid] | 100%
